US20260294928A1, “BTK INHIBITOR FOR TREATING MULTIPLE SCLEROSIS” (BIOGEN MA INC., priority 2023, published 2026)
Like-named read-outs stand apart in the source and are kept apart here.

Columns and labels:
[1] = Part 1 safety and tolerability in healthy subjects; type: in vivo, human; details: all regimens tested, Part 1 (150, 250, 350 mg; fed, fasted, divided dose)
Method: (§1) In a single center, open-label study, several formulations and treatment regimens were explored to reduce pharmacokinetic (PK) variability and achieve steady state Ctrough>221 ng/mL while limiting the drug exposure (Cmax). The study included 3 parts.
(§2) IR tablet (50 mg) was tested in 19 healthy subjects at different dose levels (150, 250 and 350 mg) and in the fed (moderate fat and high fat) and fasted state and as a divided daily dose (12 h apart). Subject were treated with BIIB091 up to 4 periods. To facilitate comparisons between different regimens, subjects were randomized into 2 groups (Group 1 and Group 2) pre-dose on Day 1 in Periods 1, 3 and 4. Period 2 was utilized as a reference period, where all subjects were dosed with the BIIB091 IR DiC (drug in capsule).

[2] = Part 3 multiple dose PK, 250 mg BID x 7 days with moderate fat meal; type: in vivo, human; details: 250 mg BID 12 h apart x 7 days
Method: (§3) 250 mg BIIB091 was dosed in a new cohort of 10 healthy subjects twice a day (BID) 12 h apart with a moderate fat meal for 7 days. […] Geomean Ctau (CV %) was 407 (48.3%) ng/mL which exceeded the target of >221 ng/mL, with 9/10 subjects achieving the target.

[3] = Part 1 PK study of BIIB091 formulations and regimens in healthy subjects; type: in vivo, human
Method: as §1, §2

[4] = Part 2 PK of BIIB091 with PPI rabeprazole, fasted or fed; type: in vivo, human; details: 200 mg BIIB091 IR tablet with rabeprazole 20 mg
Method: (§4) A new cohort of 12 healthy male and female (non pregnant and non-lactating) subjects were enrolled and dosed. Subjects were randomized into two groups of 6 subjects, to receive the regimen sequence MNO across 3 study periods (Group 1) or regimen sequence MNP across 3 study periods (Group 2). Both groups were dosed in the fed state in Periods 1 and 2, i.e. BIIB091 alone in the fed state in Period 1, and BIIB091 with the CYP3A4 inhibitor itraconazole in the fed state in Period 2. For the PPI assessment in Period 3, subjects were dosed with BIIB091 co-administered with rabeprazole in the fasted or fed state in order to assess PK under each of these conditions.

CYP3A4 = CYP3A4 (Homo sapiens, UniProt P08684); test: Part 2 PK of BIIB091 with CYP3A4 inhibitor itraconazole, fed; type: in vivo; details: role: substrate, 200 mg BIIB091 IR tablet
Method: as §4

[5] = system: CD69 upregulation on total B cells (CD19+); test: CD69 inhibition on ex vivo stimulated total B cells (CD19+), Part 3; type: in vivo, human; details: for inhibition at 250 mg: Homo sapiens, B-cell, 250 mg BID
Method: as §3

Chain of CYP3A4 (P08684 whole entry): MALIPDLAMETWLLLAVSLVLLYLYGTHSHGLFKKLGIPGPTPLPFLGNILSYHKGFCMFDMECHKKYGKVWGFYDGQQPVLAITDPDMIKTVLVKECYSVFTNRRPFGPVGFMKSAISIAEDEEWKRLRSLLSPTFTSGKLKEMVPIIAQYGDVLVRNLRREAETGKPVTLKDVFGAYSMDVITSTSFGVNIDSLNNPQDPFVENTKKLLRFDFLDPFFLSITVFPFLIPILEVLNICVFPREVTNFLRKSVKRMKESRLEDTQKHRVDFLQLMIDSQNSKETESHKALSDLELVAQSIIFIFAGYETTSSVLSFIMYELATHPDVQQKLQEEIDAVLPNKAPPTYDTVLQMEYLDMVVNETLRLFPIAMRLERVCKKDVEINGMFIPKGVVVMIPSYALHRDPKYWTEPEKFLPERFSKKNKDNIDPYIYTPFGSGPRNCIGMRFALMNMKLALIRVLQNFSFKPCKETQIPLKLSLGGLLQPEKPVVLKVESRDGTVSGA

- accumulation ratio for AUCtau [2]: 1.75
- accumulation ratio for Cmax [2]: 1.49
- subjects achieving the target Ctau of >221 ng/mL [2]: 9/10
- concentration at 12 h ([2]; human, in vivo, po, read-out: Geomean Ctau (CV %)): 407 ng/mL
- C (Cmax) with HF food ([3]; high fat food): reduced
- T (Tmax) with HF food ([3]; high fat food): delayed
- AUC with MF meal ([3]; moderate fat meal): similar
- C with MF meal ([3]; moderate fat meal): similar
- BIIB091 bioavailability with PPI co-administration, fasted state ([4]; fasted): decreased
- BIIB091 bioavailability with PPI together with food, compared with fasted condition ([4]; moderate-fat fed): increased
- CYP3A4 substrate (CYP3A4; fed, with itraconazole 200 mg): moderate CYP3A4 substrate
- BIIB091 exposure with CYP3A4 inhibitor co-administration (CYP3A4; inhibitor itraconazole 200 mg, moderate-fat fed): increased
SMILES: Cn1cc(Nc2nccc(-c3ccc4c(c3)CN(C3COC3)CC[C@H]4NC(=O)c3cn(C(C)(C)C)nn3)n2)cn1 [Compound 1, (R)-1-(tert-butyl)-N-(8-(2-((1-methyl-1H-pyrazol-4-yl)amino)pyrimidin-4-yl)-2-(oxetan-3-yl)-2,3,4,5-tetrahydro-1H-benzo[c]azepin-5-yl)-1H-1,2,3-triazole-4-carboxamide]
- safety and tolerability [1]: generally safe and well tolerated
- Tmax with MF meal compared to HF ([3]; moderate fat meal): less of a delay in Tmax compared to high fat
- CD69 inhibition at 24 h post final dose ([5]; 250 mg BID x 7 days, 24 h post final dose): returned to baseline
- inhibition at 250 mg ([5]; 12 h post-dose, day 1, read-out: CD69 mean inhibition): 86.8%
- inhibition at 250 mg ([5]; 12 h post-dose, day 7, read-out: CD69 mean inhibition): 85.4%
- inhibition at 250 mg ([5]; Day 1 and 7, from 1 h to 8 h post-dose, ex vivo stimulated B cells, read-out: CD69 inhibition range): 96.5 to 99.2%
- inhibition at 250 mg ([5]; Day 1 and 7, from 1 h to 8 h post-dose, ex vivo stimulated B cells, read-out: mean inhibition of CD69 upregulation from Day 1 pre-dose baseline): > 90%
